In patent US10035818B2, “Polyethylene glycol based prodrug of adrenomedullin and use thereof” (Bayer Pharma Aktiengesellschaft, priority 2011, dated 2018):
Each block holds one compound with its values, some of them ahead of it. Where no end group is shown, it is not given here. Side-chain parts run from the residue outwards. Dab = NCC[C@H](N)C(=O)O

Key:
normotensive Wistar rats = assay: Blood pressure and heart rate in telemetered, normotensive Wistar rats; format: in vivo
From the text: The cardiovascular effects induced by compounds according to the invention are investigated in freely moving conscious female Wistar rats (body weight>200 g) by radiotelemetric measurement of blood pressure and heart rate. Briefly, the telemetric system (DSI Data Science International, MN, USA) is composed on 3 basic elements: implantable transmitters (TA11PA-C40), receivers (RA1010) and a computer-based acquisition software (Dataquest™ A.R.T. 4.1 for Windows). Rats are instrumented with pressure implants for chronic use at least 14 days prior to the experiments. The sensor catheter is tied with 4-0 suture several times to produce a stopper 0.5 cm from the tip of the catheter. During catheter implantation rats are anesthetized with pentobabital (Nembutal, Sanofi: 50 mg/kg i.p.). After shaving the abdominal skin, a midline abdominal incision is made, and the fluid-filled sensor catheter is inserted upstream into the exposed descending aorta between the iliac bifurcation and the renal arteries. The catheter is tied several times at the stopper. The tip of the telemetric catheter is located just caudal to the renal arteries and secured by tissue adhesive. The transmitter body is affixed to the inner peritoneal wall before closure of abdomen. A two-layer closure of the abdominal incision is used, with individual suturing of the peritoneum and the muscle wall followed by closure of the outer skin. For postsurgical protection against infections and pain a single dosage of an antibiotic (Oxytetracyclin 10% R, 5.0 ml/kg s.c., beta-pharma GmbH&Co, Germany) and analgesic is injected (Rimadyl R, 5.0 ml/kg s.c., Pfizer, Germany). The hardware configuration is equipped for 24 animals. Each rat cage is positioned on top of an individual receiver platform. After activation of the implanted transmitters, an on-line data acquisition system, samples data and converts telemetric pressure signals to mm Hg. A barometric pressure reference allows for relation of absolute pressure (relative to vacuum) to ambient atmospheric pressure. […]

Göttingen minipigs [1] = assay: Acute lung injury in mini pigs induced by intratracheal LPS; format: in vivo
From the text: (§1) Acute lung injury is induced in anesthetized mini pigs by use of lipopolysaccharide (LPS) or oleic acid as challenges. In detail: female Göttingen minipigs of ca. 3.5 to 5.5 kg body weight (Ellegaard, Denmark) are kept anesthetized by an continuous i.v.-infusion of Ketavet®, Dormicum® and Pancuronium® after premedication with an intramuscular injection of Ketavet®/Stresnil®. After intratracheal intubation animals are artificially ventilated using a pediatric respirator (Sulla 808V; Dräger, Germany) with an oxygen air mixture at a tidal volume of 30 to 50 ml and constant frequency of 25 min^−1. Arterial PaCO2 is adjusted to about 40 mmHg by […]. […] Cellular content of BALF is determined by use of a blood cell counter (Cell DYN 3700). […]

Göttingen minipigs [2] = assay: Acute lung injury in mini pigs induced by oleic acid infusion; format: in vivo
From the text: as §1

[3] = target: T1, human adrenomedullin-receptor (Homo sapiens, UniProt O60895+Q16602); assay: Recombinant adrenomedullin-receptor reporter cell (CHO, aequorin luminescence); format: cell-based; conditions: before incubation; read-out: EC50 T = 0 h
T1 construct: expressed in transfected cells; host or cells: CHO (Chinese hamster ovary) aequorin reporter cell line
Protocol: Activation of the receptor by ligands can be measured by aequorin luminescence. Construction of the cell line and measurement procedure has been described in detail [Wunder F., Rebmann A., Geerts A, and Kalthof B., Mol Pharmacol, 73, 1235-1243 (2008)]. In brief: Cells are seeded on opaque 384-well microtiter plates at a density of 4000 cells/well and are grown for […]. After removal of culture medium, cells are loaded for 3 h with 0.6 μg/ml coelenterazine in Ca^2+-free Tyrode solution (130 mM sodium chloride, 5 mM potassium chloride, 20 mM HEPES (4-(2-hydroxyethyl)-1-piperazineethanesulfonic acid), 1 mM magnesium chloride, and 4.8 mM sodium hydrogen carbonate, pH 7.4) supplemented with 0.2 mM 3-Isobutyl-1-methylxanthine (IBMX) in a cell culture incubator. Compounds are added for 6 min in calcium^2+-free Tyrode solution containing 0.1% bovine serum albumin. Immediately before adding calcium^2+ to a final concentration of 3 mM measurement of the aequorin luminescence is started by use of a suitable luminometer. Luminescence is measured for 60 s.

T1 sequence (Q16602 23-461): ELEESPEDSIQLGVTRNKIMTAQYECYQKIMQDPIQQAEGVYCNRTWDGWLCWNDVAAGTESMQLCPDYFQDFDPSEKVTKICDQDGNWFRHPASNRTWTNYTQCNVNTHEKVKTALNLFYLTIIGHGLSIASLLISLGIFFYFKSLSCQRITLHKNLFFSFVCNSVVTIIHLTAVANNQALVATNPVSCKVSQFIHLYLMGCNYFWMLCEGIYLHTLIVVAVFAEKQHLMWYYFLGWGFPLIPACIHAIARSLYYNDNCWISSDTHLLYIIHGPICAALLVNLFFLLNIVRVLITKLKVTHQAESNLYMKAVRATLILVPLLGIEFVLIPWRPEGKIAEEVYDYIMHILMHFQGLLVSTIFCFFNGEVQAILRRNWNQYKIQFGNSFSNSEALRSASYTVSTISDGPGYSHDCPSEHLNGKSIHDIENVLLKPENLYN
T1 sequence (O60895 43-175): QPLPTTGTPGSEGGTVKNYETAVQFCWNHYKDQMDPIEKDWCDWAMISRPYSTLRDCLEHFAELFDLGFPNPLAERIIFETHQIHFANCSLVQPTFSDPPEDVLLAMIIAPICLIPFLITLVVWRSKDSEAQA

Compound: CC[C@H](C)[C@H](NC(=O)[C@H](CCC(N)=O)NC(=O)[C@H](Cc1c[nH]cn1)NC(=O)[C@H](C)NC(=O)[C@H](CC(C)C)NC(=O)[C@H](CCCCN)NC(=O)[C@H](CCC(N)=O)NC(=O)[C@@H](NC(=O)[C@@H](NC(=O)[C@@H]1CSSC[C@H](NC(=O)CNC(=O)[C@H](Cc2ccccc2)NC(=O)[C@H](CO)NC(=O)[C@H](CCCNC(=N)N)NC(=O)[C@H](CC(C)C)NC(=O)CNC(=O)[C@H](CCC(N)=O)NC(=O)[C@H](Cc2ccccc2)NC(=O)[C@H](CC(N)=O)NC(=O)[C@H](CC(N)=O)NC(=O)[C@H](CCSC)NC(=O)[C@H](CO)NC(=O)[C@H](CCC(N)=O)NC(=O)[C@H](CCCNC(=N)N)NC(=O)[C@@H](N)Cc2ccc(O)cc2)C(=O)N[C@@H](CCCNC(=N)N)C(=O)N[C@@H](Cc2ccccc2)C(=O)NCC(=O)N[C@@H]([C@@H](C)O)C(=O)N1)[C@@H](C)O)C(C)C)C(=O)N[C@@H](Cc1ccc(O)cc1)C(=O)N[C@@H](CCC(N)=O)C(=O)N[C@@H](Cc1ccccc1)C(=O)N[C@H](C(=O)N[C@@H](CC(=O)O)C(=O)N[C@@H](CCCCN)C(=O)N[C@@H](CC(=O)O)C(=O)N[C@@H](CCCCN)C(=O)N[C@@H](CC(=O)O)C(=O)N[C@@H](CC(N)=O)C(=O)N[C@H](C(=O)N[C@@H](C)C(=O)N1CCC[C@H]1C(=O)N[C@@H](CCCNC(=N)N)C(=O)N[C@@H](CO)C(=O)N[C@@H](CCCCN)C(=O)N[C@H](C(=O)N[C@@H](CO)C(=O)N1CCC[C@H]1C(=O)N[C@@H](CCC(N)=O)C(=O)NCC(=O)N[C@@H](Cc1ccc(O)cc1)C(N)=O)[C@@H](C)CC)C(C)C)[C@@H](C)O [ADM, adrenomedullin (human)]
- duration of blood pressure reduction (normotensive Wistar rats): ≤ 4 h
- time after which MABP had returned to base line levels (normotensive Wistar rats; subcutaneous, FIG. 1): about 3.5 hours
- mean reduction of MABP at peak (normotensive Wistar rats; subcutaneous, one hour after administration, FIG. 1): ~20%

Compound: O-{[(3 S)-3-Amino-4-({(2R)-1-amino-3-[(2,5-dioxo-1-{3-oxo-3-[(2-{ω-methoxy-poly-oxyethylen[40 kDa]}ethyl)amino]propyl}pyrrolidin-3-yl)sulfanyl]-1-oxopropan-2-yl}amino)-4-oxobutyl]carbamoyl}-L-tyrosyl-adrenomedullin(2-52) (Y([Dab-Cys‑NH2-succinimide-PEG 40 kDa])RQSMNNFQGLRSFGCRFGTCTVQKLAHQIYQFTDKDKDNVAPRSKISPQGY; cysteine pairing not given here; also: PEG 40 kDa prodrug linker attached by carbamate to Tyr1 phenol O; UniProt P35318 95-146, looked up) [Example 1, PEG 40 kDa based prodrug of adrenomedullin]
- doses found to be active (Göttingen minipigs [1]; as referred to the peptide component, LPS protocol): ≤ 30 μg/kg body weight
- LPS induced changes (PAP, EVWLI, PaO2/FiO2, cellular content of BALF) (Göttingen minipigs [1]; i.v.-bolus 15 min before the LPS challenge): ameliorated or prevented
- oleic acid induced changes (PAP, EVLWI, PaO2/FiO2) (Göttingen minipigs [2]; administration 15 min before start of the OA infusion): ameliorated or prevented
- doses found to be active (Göttingen minipigs [2]; as referred to the peptide component, oleic acid protocol): ≤ 30 μg/kg body weight

- EC50 [3]: > 1000 nM
Compound: O-{[(3-N-Methyl-amino-4-({(2R)-1-amino-3-[(2,5-dioxo-1-{3-oxo-3-[(2-{ω-methoxy-poly-oxyethylen[40 kDa]}ethyl)amino]propyl}pyrrolidin-3-yl)sulfanyl]-1-oxopropan-2-yl}amino)-4-oxobutyl]carbamoyl}-L-tyrosyl-adrenomedullin(2-52) [Example 2]
